The results in this text go back to US6476062B2, “Chemokine receptor antagonists” (Schering Corporation, priority 2000, dated 2002).

This assay concerns the target T1, human CCR5 chemokine receptor (Homo sapiens, UniProt P51681).
T1 construct: expressed in transfected cells; host or cells: NIH 3T3 cells (mouse fibroblasts) expressing human CCR5; membranes prepared from them
The assay is described as follows: CCR5 membrane binding assay (inhibition of 125I-RANTES binding). Conditions: membranes from NIH 3T3 cells expressing human CCR5; 0.05 nM 125I Rantes; one hour; replicates of four; read-out: IC50, 50 percent inhibition of total membrane binding of 125I Rantes. The method, then: A high throughput screen utilizing a CCR5 membrane binding assay identifies inhibitors of RANTES binding. This assay utilizes membranes prepared from NIH 3T3 cells expressing the human CCR5 chemokine receptor which have the ability to bind to RANTES, a natural ligand for the receptor. Using a 96-well plate format, membrane preparations are incubated with ^125I-RANTES in the presence or absence of compound for one hour. Compounds are serially diluted over a wide range of 0.001 ug/ml to 1 ug/ml and tested in triplicates. Reaction cocktails are harvested through glass fiber filters, and washed thoroughly. Total counts for replicates are averaged and data reported as the concentration required to inhibit 50 percent of total ^125I-RANTES binding. Compounds with potent activity in the membrane binding assay are further characterized in secondary cell-based HIV-1 entry and replication assays.
The activity of the compound of formula II was evaluated in the CCR5 membrane binding assay. The assay utilizes membranes prepared from NIH 3T3 cells which express human CCR5 chemokine receptor. RANTES (Regulated upon Activation, Normal T cell Expressed and Secreted) is a natural ligand for the CCR5. […] Total counts for replicates are averaged and 50 percent inhibition of total membrane binding of ^125I Rantes is determined.

T1 sequence (P51681 whole entry): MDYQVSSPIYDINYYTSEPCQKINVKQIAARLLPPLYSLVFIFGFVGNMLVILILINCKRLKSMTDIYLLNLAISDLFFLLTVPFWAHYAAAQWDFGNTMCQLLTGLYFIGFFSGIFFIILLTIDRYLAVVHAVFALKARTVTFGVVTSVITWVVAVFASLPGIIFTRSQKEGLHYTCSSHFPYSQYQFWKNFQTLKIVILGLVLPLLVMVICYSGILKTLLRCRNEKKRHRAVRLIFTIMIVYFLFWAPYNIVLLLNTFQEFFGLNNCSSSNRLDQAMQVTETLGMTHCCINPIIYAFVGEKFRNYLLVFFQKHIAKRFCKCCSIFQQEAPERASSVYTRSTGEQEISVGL

As to `C/C=C(\C)[C@@H]1C=C[C@@H]2C[C@H](C)C[C@H](C)[C@H]2[C@@H]1/C(O)=C1/C(=O)N[C@H](C[C@@](C)(O)C(=O)O)C1=O` [Compound II], the IC50 – broadly, the point on the concentration scale where inhibition reaches its midpoint – came to 78.6 nM.
